Data on one compound can be found in US20240245696A1, “INHIBITORS OF DNA PK AND USES THEREOF” (BioVentures, LLC, priority 2017, published 2024).

Test [1] relates to NFAT. Briefly: Western blot of phosphorylated NFAT (s237) in activated Jurkat cells. In kind it is cell-based, human. Particulars: Jurkat activated with PMA+PHA. As for the experimental part: Cell Culture: Human peripheral blood mononuclear cells (PBMC,) and Jurkat cells were purchased from ATCC (PCS-800-011, Manassas, VA). Cells were maintained at 37° C. in a humidified atmosphere composed of 5% CO2. Jurkat cells were cultured in RPMI 1640 medium which was supplemented with 10% FCS and human PBMC was cultured in RPMI 1640 medium which was supplemented with 10% FCS and pen/strep. Both Jurkat cells and PBMC were stimulated with PHA (50 ng/mL) and PMA (1 μg/mL) for 24 hours prior to harvesting for IL-2 detection or 6 hours prior for western blot analysis. The NU7441 DNA-PKcs inhibitor was added at varying concentrations at the time of stimulation.
Cell lysis and nuclear extract: Cells were washed with cold PBS twice and centrifuged at 5000 rpm for 5 minutes. For the nuclear extract, pellets were suspended with 800 μL of 10 mN HEPES lysis buffer (10 mM HEPES at pH 7.9, 10 mM KCl, 1 mM DTT, and 1× protease and phosphatase inhibitor) and incubated on ice for 15 minutes. 50 μL of NP-40 (10% in water) was added and the pellets were mixed for 10 seconds. Lysates were centrifuged for 5 minutes at 4° C. at 13,000 rpm. […]
A general note: In western blotting, separated proteins are transferred to a membrane and probed.

For test [2], the target named is T1, DNA-PKcs (Homo sapiens, UniProt P78527). To be noted: reference [24]; cited from earlier work.
Test [3] concerns IL-2. Briefly: Secreted IL-2 ELISA, Jurkat cells stimulated with anti-CD28/CD3 dynabeads. In kind it is cell-based, human. Particulars: anti-CD28/CD3 dynabeads 1:1 ratio, 24 hours. The protocol: Detection of secreted IL-2: Secreted IL-2 was detected by Human IL-2 ELISA Kit from Thermo Scientific (Waltham, MA). The manufacturer's protocol was followed. Prior to harvesting, cells were treated with PHA (50 ng/ml) and PMA (1 μg/mL) for 24 hours with or without the NU7441 inhibitor. Jurkat cells stimulated with the anti-CD28/CD3 dynabeads were done so according to the manufacturer's protocol at a 1:1 ratio for 24 hours prior to harvesting. After stimulation, supernatant samples of Jurkat cells or PBMCs (2 million cells/mL) were collected and diluted 10 times before the assay. IL-2 standards and samples (50 μL) and Biotinylated antibody reagents (50 μL) were added to each well and the plate was incubated for 3 hours at room temperature. The plate was washed 3 times and 100 μL of Streptavidin-HRP solution was added. After 30 minutes of incubation at room temperature, the plate was washed 3 times. TMB substrate (100 μL) was added and incubated for 30 minutes in the dark at room temperature. Stop solution was added and the absorbance of each well was read at 450 nm using the plate reader.
(An ELISA detects its analyte on a solid surface through an enzyme-linked reagent.)

The test system of test [4] is skin allograft mouse model. The test can be described thus: Mouse skin allograft. In kind it is in vivo. The protocol:
Materials: DNA-PK inhibitor, NU7441 was purchased from Selleckchem.com and used in vivo at 10 mg/kg diluted in DMSO and 40% PEG or in vitro at 5 μM. Tacrolimus (FK506) was ordered for Sigma Aldrich and used at a concentration of 1 mg/kg in vivo.
Mouse skin allograft: To confirm that DNA-PK inhibitors could function as an immunosuppressant in vivo, mouse skin allograft studies were performed. All studies were performed under an approved IACUC protocol. Ears from donor BALBc mice were removed and split into two removing all cartilaginous material. The ear skin was placed on an incision made to the back of a recipient C57BI6 or DNA-PK knockout (NOD.CB17-Prkdc scid/J-20) mouse. The skin was sutured in 4 places using 6-0 nylon sutures. Wounds were wrapped in gauze and ban-daids and allowed to heal for 6 days before removing the bandage. Spleens were harvested from donor mice for splenocyte isolation. On Day 0 through Day 10 (the day of sacrifice) mice were injected (100 ul) daily with one of the following: saline, Tacrolimus (1 mg/kg), or NU7441 ([…]). Mice were monitored for rejection daily which was indicated by dark, black appearance. At the time of sacrifice, mice were euthanisized according to IACUC guidelines and skin grafts removed and fixed in formalin for histology. Spleens and blood were also collected.

The target in test [5] is T1, DNA-PKcs. Briefly: Western blot of phosphorylated DNA-PKcs (s2056) in activated Jurkat cells. The test is classed as cell-based. On the set-up: host or cells: Jurkat cells. To be noted: Jurkat activated with PMA+PHA.
Experimental: Cell Culture: Human peripheral blood mononuclear cells (PBMC,) and Jurkat cells were purchased from ATCC (PCS-800-011, Manassas, VA). Cells were maintained at 37° C. in a humidified atmosphere composed of 5% CO2. […] Both Jurkat cells and PBMC were stimulated with PHA (50 ng/mL) and PMA (1 μg/mL) for 24 hours prior to harvesting for IL-2 detection or 6 hours prior for western blot analysis. The NU7441 DNA-PKcs inhibitor was added at varying concentrations at the time of stimulation.
Cell lysis and nuclear extract: Cells were washed with cold PBS twice and centrifuged at 5000 rpm for 5 minutes. For the nuclear extract, pellets were suspended with 800 μL of 10 mN HEPES lysis buffer (10 mM HEPES at pH 7.9, 10 mM KCl, 1 mM DTT, and 1× protease and phosphatase inhibitor) and incubated on ice for 15 minutes. 50 μL of NP-40 (10% in water) was added and the pellets were mixed for 10 seconds. Lysates were centrifuged for 5 minutes at 4° C. at 13,000 rpm. The supernatant solution which is containing the cytosolic fraction was discarded and the pellets were resuspended in 20 mM HEPES lysis buffer (20 mM HEPES at pH 7.9, 0.4 M NaCl, 1 mM DTT, and 1× protease, and phosphatase inhibitor) and incubated on ice for 15 minutes with intermittent mixing. Lysates were centrifuged for 10 minutes at 4° C. at 13,000 rpm. […]
Test [6] concerns IL-2. The test can be described thus: qPCR of IL-2 expression in stimulated Jurkat cells. The test is classed as cell-based, human. To be noted: PHA+PMA stimulation. The protocol: (§1) Evaluation of PD-1 and IL-2 expression: The effect of NU7441 on the expression of PD-1, a protein with immunosuppressant function, and IL-2 was examined in Jurkat cells following stimulation with PHA+PMA and treatment with the inhibitor NU7441. qPCR analysis was performed using primers specific for PD1 and IL-2 sequences.
A general note: Real-time PCR tracks product formation cycle by cycle.

Test [7] relates to PD-1. The test can be described thus: qPCR of PD-1 expression in stimulated Jurkat cells. In kind it is cell-based, human. To be noted: PHA+PMA stimulation. As for the experimental part: as §1

“Also recorded” adds a separate entry of the source.

As for `O=c1cc(N2CCOCC2)oc2c(-c3cccc4c3sc3ccccc34)cccc12` [NU7441], the “NFAT phosphorylation at s237” value in test [1] is given as “remained phosphorylated; also recorded: inhibited the dephosphorylation of NFAT”. In test [2], the “inhibition of DNA-PKcs” value was “potent and specific inhibitor”; the “interference with ATR or ATM activation” value is given as “does not interfere”. In addition, the IL-2 production entry in test [3] is reported as “significantly blocked IL-2 production; also recorded: inhibited”. In test [4] (Day 10, BALBc donor skin on C57BI6 recipient, daily injection Day 0 through Day 10), the “level of necrosis of skin graft, average” value was “around 30%”. Also, the “rejection in skin allograft mouse model” value in test [4] (compared to control groups treated only with saline) is recorded as “reduces rejection”. Also, the “visual examination of graft necrosis” value in test [4] (treatment groups vs saline groups (severe necrosis)) is reported as “majority with 0% necrosis”. The “DNA-PKcs phosphorylation (s2056)” value in test [5] was “effectively inhibited DNA-PKcs phosphorylation”. Besides, in test [5] (listed as NU744), the “DNA-PKcs phosphorylation (s2056)” value is given as “reduced”. In addition, the IL-2 expression result in test [6] is recorded as “reduced”. Also, the “expression level of PD-1” value in test [7] was “did not alter”.
